In patent publication US4348393A, “N-Aryl oxazolidinones, oxazolidinethiones, pyrrolidinones, pyrrolidines and thiazolidinones” (Delalande S.A., priority 1978, dated 1982) one finds ED50 data, which are given here for 25 compounds.

In test [1] the test system is ptosis observed one hour after reserpine. The test is described as follows: Test B: antagonism of reserpine-induced ptosis in mice. The class given is in vivo. The settings on record: Mus musculus, 1 h, po, antagonism of ptosis one hour after reserpine 2 mg/kg intravenous, read-out: Test B ED 50. Here is the method:
Test B: Antagonism with respect to the ptosis observed one hour after an intravenous injection (2 mg/kg) of reserpine given to mice, following the protocol described by C.

Test [2] has as its system generalized trembling caused by dl-5-hydroxytryptophane. Kind of test: Test A: potentiation in mice of generalized trembling caused by dl-5-hydroxytryptophane. The settings on record: Mus musculus, po, mice, potentiation of trembling by dl-5-hydroxytryptophane 200 mg/kg interperitoneal, read-out: Test A ED 50. The class given is in vivo. Here is the method: Test A: Potentiation in mice of generalized trembling caused by an interperitoneal injection (200 mg/kg) of dl-5-hydroxytryptophane, following the protocol described by C. GOURET and G. RAYNAUD in J. Pharmacol. (Paris), (1974), 5, 231.

As for `CC(C)(C)C(=O)OCC1CN(c2ccc(OCc3cccc([N+](=O)[O-])c3)cc2)C(=O)O1` (centres unmarked) [compound 40], the ED50 amounted to 1.5 mg/kg in test [1] and 6.2 mg/kg in test [2].

For `NCC1CN(c2ccc(OCc3cccc([N+](=O)[O-])c3)cc2)C(=O)O1` (centres unmarked) [compound 84], the results for the ED50 in test [1] and in test [2] were 1.3 mg/kg and 3 mg/kg, respectively.

Consider `COCC1CN(c2ccc(OCc3ccc(C#N)cc3)cc2)C(=O)O1` (centres unmarked) [compound 159], for which the figures for the ED50 in test [1] and in test [2] were 4.8 mg/kg and 5.2 mg/kg, respectively.

As for `COCC1CN(c2ccc(OCc3cccc(F)c3)cc2)C(=O)O1` (centres unmarked) [compound 67], the ED50 stood at 5.6 mg/kg in test [1] and 4.4 mg/kg in test [2].

`OCC1CN(c2ccc(OCc3cccc(C(F)(F)F)c3)cc2)C(=S)O1` (centres unmarked) [compound 98]: the ED50 in test [1] and in test [2] was 12.5 mg/kg in each case.

On to `OCC1CN(c2ccc(OCc3cccc(Cl)c3)cc2)C(=S)O1` (centres unmarked) [compound 93], for which the ED50 in test [1] was 6 mg/kg; in test [2] it was 9 mg/kg.

Turning to `O=[N+]([O-])c1cc(Cl)cc(COc2ccc(N3CC(CO)OC3=S)cc2)c1` (centres unmarked) [compound 113], the ED50 in test [1] is 3.5 mg/kg; in test [2] it was 3.2 mg/kg.

With `COCC1CN(c2ccc(OCC3CCCCCC3)cc2)C(=O)O1` (centres unmarked) [compound 150], the figures for the ED50 in test [1] and in test [2] were 0.5 mg/kg and 0.7 mg/kg, respectively.

For the compound `OCC1CN(c2ccc(OCc3ccc(F)cc3)cc2)C(=S)O1` (centres unmarked) [compound 96], the ED50 in test [1] came out at 3.6 mg/kg; in test [2], 4.7 mg/kg.

`CCCCOc1ccc(N2CC(CO)OC2=S)cc1` (centres unmarked) [compound 89]: the ED50 in test [1] and in test [2] was 12.5 mg/kg in each case.

Take `O=C(OCC1CN(c2ccc(OCc3ccccc3)cc2)C(=O)O1)c1ccccc1` (centres unmarked) [compound 29]: the figures for the ED50 in test [1] and in test [2] were 50 mg/kg and 45 mg/kg, respectively.

As for `CC(C)C(=O)OCC1CN(c2ccc(OCc3cccc([N+](=O)[O-])c3)cc2)C(=O)O1` (centres unmarked) [compound 38], the ED50 in test [1] was 2 mg/kg; in test [2] it was 1.5 mg/kg.

For `CC(=O)OCC1CN(c2ccc(OCc3ccccc3)cc2)C(=O)O1` (centres unmarked) [compound 23], the ED50 in test [1] stood at 12.5 mg/kg; in test [2], 12 mg/kg.

`COCC1CN(c2ccc(OCc3ccc(Cl)cc3)cc2)C(=O)O1` (centres unmarked) [compound 68]: the ED50 in test [1] was determined as 6.2 mg/kg; in test [2] it was 5 mg/kg.

As to `OCC1CN(c2ccc(OCc3ccc(Cl)cc3)cc2)C(=S)O1` (centres unmarked) [compound 95], the ED50 in test [1] was 35 mg/kg; in test [2], 50 mg/kg.

For the compound `CC(C)C(=O)OCC1CN(c2ccc(OCC3CCCC3)cc2)C(=O)O1` (centres unmarked) [compound 15], the ED50 in test [1] came to 2 mg/kg; in test [2] it was 2.2 mg/kg.

Turning to `COCC1CN(c2ccc(OCC3CCC(=O)CC3)cc2)C(=O)O1` (centres unmarked) [compound 188], the values for the ED50 in test [1] and in test [2] were 0.4 mg/kg and 0.3 mg/kg, respectively.

Regarding `CCCCCCCCC(=O)OCC1CN(c2ccc(OCC3CCCCC3)cc2)C(=O)O1` (centres unmarked) [compound 122], the ED50 was found to be 6.2 mg/kg in test [1] and 6.8 mg/kg in test [2].

With `CCCCC(=O)OCC1CN(c2ccc(OCc3ccccc3)cc2)C(=O)O1` (centres unmarked) [compound 26], the ED50 was 20 mg/kg in test [1] and 12.5 mg/kg in test [2].

For the compound `CCOCC1CN(c2ccc(OCC3CCCC3)cc2)C(=O)O1` (centres unmarked) [compound 146], the ED50 in test [1] is 12.5 mg/kg; in test [2], 5 mg/kg.

Regarding `CCCCC(=O)OCC1CN(c2ccc(OCCC#N)cc2)C(=O)O1` (centres unmarked) [compound 6], the ED50 in test [1] is 6 mg/kg; in test [2], 2.4 mg/kg.

For `CCCCC(=O)OCC1CN(c2ccc(OCC3CCCC3)cc2)C(=O)O1` (centres unmarked) [compound 16], the ED50 in test [1] was found to be 1.5 mg/kg; in test [2], 1.7 mg/kg.

For the compound `CCOCC1CN(c2ccc(OCc3cccc(C#N)c3)cc2)C(=O)O1` (centres unmarked) [compound 167], the ED50 in test [1] came out at 3 mg/kg; in test [2], 3.7 mg/kg.

Regarding `CCCOCC1CN(c2ccc(OCCC#N)cc2)C(=O)O1` (centres unmarked) [compound 145], the ED50 was 12 mg/kg in test [1] and 8.5 mg/kg in test [2].

For `CCCOc1ccc(N2CC(CO)OC2=S)cc1` (centres unmarked) [compound 88], the ED50 came to 33 mg/kg in test [1] and 12.5 mg/kg in test [2].
